Values of other authors, collected in patent US8951557B2, “Sustained release solid formulations and methods of manufacturing the same” (Hana Pharm. Co. Ltd., priority 2008, dated 2015).

Key:
[1] = 5 mg rapid release tablet administered
[2] = administered orally, compared to direct administration into bloodstream

COc1ccc2c3c1O[C@H]1C(=O)CC[C@@]4(O)[C@@H](C2)N(C)CC[C@]314.Cl [Oxycodone hydrochloride]
time the analgesic effect sustains [1]: 4 to 6 h
bioavailability [2]: 60-87%
